SMILES strings stand for the structures.

One may read the melting point as the temperature of the solid-liquid transition. `CCCCOCCOc1ccc(-c2ccc(N3CCC(COC(C)=O)C3)c(C=C(C)C(=O)O)c2)cc1` (stereo not drawn) yielded a melting point of 110 to 111 °C.

`Cc1cc(O)ccc1-c1cnc2[nH]c(=O)n(CC3CCCCC3)c2n1` had a melting point of 212 to 214 °C.

As to `Cn1c2ccccc2c2cc(C(=O)O)sc21`, the melting point lay within 179 to 180 °C.

Compound `CCOC(=O)CC1(O)c2ccccc2C=Cc2ccccc21` gave a melting point of 93 to 99 °C.

On to `CC1(O)CC2c3ccccc3CCN2C2CCCCC21` (stereo not drawn), for which the melting point was 85 to 88 °C.

The compound `C=C(CC(=O)c1ccc(C)cc1)C(=O)O` displayed a melting point of 137 to 138 °C.

The compound `O=C(O)c1ccc(C(=O)c2cccnc2)cc1` displayed a melting point of 266 to 267 °C.

As for `O=C[C@H](OCc1ccccc1)[C@@H](OCc1ccccc1)[C@@H](O)COCc1ccccc1`, the melting point was 68 to 73 °C.

In turn, `Cc1nc2c(OCc3ccccc3Cl)nccc2n1C` registered a melting point of 180 to 181 °C.

The compound `COc1ccc(Nc2nc(NC3CCCCCC3)nc(N3CCCC3)n2)cc1F` had a melting point of 79 °C.

In turn, `CCCCC(=NNC(=O)OC(C)(C)C)c1ccncc1` registered a melting point of 156 °C.

`CC(=S)Nc1ccc(C(=O)O)cc1` came in with a melting point of 220 °C.

For the compound `CNC(=O)ON=C1N=C(C)C(C)(C)S1`, the melting point lay in the range of 123 to 125 °C.

Take `CCC(=O)NCCC1CCc2c(F)cc3nn(C)cc3c21` (stereo not drawn): the melting point lay within 117 to 119 °C.

`CCCN(CCC)CCc1ccc(OCc2ccccc2)c(NC(N)=O)c1`: the melting point was in the range of 70 to 88 °C.

For `CCCCCCCCC(=O)Nc1cccc([N+](=O)[O-])c1`, the melting point lay within 63 to 63.5 °C.

Regarding `O=C(CN1C(=O)C(Cl)=C(Cl)C1=O)Nc1ccc(Cl)cc1`, the melting point is 212 to 214 °C.

`CCCCCCCCCCC(=O)C(=O)CCCCCCCCCC` yielded a melting point of 68.5 to 69 °C.

In the case of `Oc1ccc2c(c1)SCCc1c-2n(CCCCCN2CCCC2)c2ccc(O)cc12`, the melting point was in the range of 202 to 204 °C.

Turning to `CC(C)(C)OC(=O)c1ccc(C(=O)N[C@H]2CN3C(=O)N(c4cc(Cl)cc(Cl)c4)C(=O)[C@@]3(Cc3ccc(Br)cc3)C2)cc1`, the melting point was found to be 112 °C.

Turning to `CC(C)(C)c1ccc(N(Cc2cccc3ccccc23)c2ccccc2)cc1`, the melting point was in the range of 135 to 137 °C.

In the case of `CS(=O)(=O)NC1CCCOc2ccccc21` (stereo not drawn), the melting point was in the range of 105 to 106 °C.

Regarding `COc1cc(F)ccc1Nc1ccc2c(c1)OCc1cc(N)ccc1C2=O`, the melting point amounted to 38.9 °C.

In turn, `CCCCCCCCOc1ccc(C(=O)Oc2cc(Cl)c(Cl)cc2Cl)cc1` gave a melting point of 53 °C.

`O=C1OC(=O)c2ncc([N+](=O)[O-])cc21`: the melting point lay in the range of 85 to 91 °C.

For the compound `CCCCCCCCCCCCCCCCCCOc1cc(OCCCBr)cc(C(=O)OCc2ccccc2)c1`, the melting point was in the range of 57 to 58 °C.

Consider `COC(=O)CCCCNC(=O)C[C@H]1O[C@H](c2cccc(OC)c2OC)c2cc(Cl)ccc2N(CC(C)(C)CO)C1=O`, for which the melting point was 84 to 85 °C.

`Cc1cc(CCC(=O)O)no1` registered a melting point of 82 to 84 °C.

In turn, `CCCCCCCCCCOCCC(=O)O` had a melting point of 41.5 to 43.9 °C.

Regarding `O=C1NC(=O)c2c1cnc1[nH]ncc21`, the melting point was 285 to 300 °C.

Turning to `Cc1ccc(S(=O)(=O)N2Cc3c(C)sc(C)c3C2)cc1`, the melting point lay in the range of 163 to 164 °C.

As to `Nc1cc(F)ccc1C(=O)Nc1ccccc1`, the melting point was 120 to 122 °C.

The compound `COc1cc2c(cc1-c1cccnc1)-c1c(Br)c3c(n1CC2)C(=O)N(C(C)(C)C)CCC3` displayed a melting point of 184 to 186 °C.

`Cc1cc(C(C)(C)C)cc(C)c1C(=O)O` displayed a melting point of 160 to 164 °C.

In turn, `O=C1C=CC(OC(=O)c2ccc([N+](=O)[O-])cc2)(c2nc3ccccc3s2)C=C1` returned a melting point of 138 °C.

For `O=C(O)/C=C/n1cnc2ccccc2c1=O`, the melting point was in the range of 250 to 254 °C.

`COc1ccc(CCC2CN(C3=Nc4cc(F)ccc4Nc4sc(C)cc43)CCN2C)cc1` (stereo not drawn) gave a melting point of 180 to 182 °C.

`O=C1c2ccc(CCCCc3ccccc3)cc2CCN1OC1CCCCO1` (stereo not drawn) came in with a melting point of 62 to 64 °C.

`COc1c(Cl)ccc(-c2cc(N)c(Cl)c(CNCC(=O)O)n2)c1F` had a melting point of 189 to 191 °C.

On to `COC(=O)Cc1ccc2nc(Nc3ccccc3)oc2c1`, for which the melting point lay within 155 to 157 °C.

Compound `CC(C)n1nc(-c2sc(NC(=O)CN(C)CCc3ccccn3)nc2-c2ccccc2)ccc1=O` yielded a melting point of 94 to 96 °C.

With `CSc1ccc(-c2nc(SC)c(C(=O)O)c(=O)n2-c2ccc(C)cc2)cc1`, the melting point was in the range of 173 to 175 °C.

For `CC(Cc1c[nH]c2ccccc12)(NC(=O)OC1C2CC3CC(C2)CC1C3)C(=O)NCCc1nc[nH]n1` (stereo not drawn), the melting point was 124 to 128 °C.

For `COC(=O)Cc1ccc(CNC(=O)C2Cc3ccccc3N2S(=O)(=O)c2ccc(-c3ccc(F)cc3OC)cc2)cc1` (stereo not drawn), the melting point lay in the range of 77 to 79 °C.

For the compound `C[C@H]1[C@@H]2C(=O)N(Cc3ccccc3)C(=O)[C@@H]2[C@H](c2ccc(C#N)cc2)N1C` (racemic), the melting point fell in the range of 188 to 190 °C.

`CCOC(=O)c1c[nH]c2cccc(O)c12` had a melting point of 151 to 153 °C.

With `CC(=O)OC12Oc3c(C(C)(C)C)cc(C(C)(C)C)cc3C1(OC(C)=O)C(=O)c1ccccc12` (stereo not drawn), the melting point lay within 242 to 247 °C.

Consider `O=C1CC(Cc2ccncc2)(Cc2ccncc2)C(=O)N1C12CC3CC(CC(C3)C1)C2`, for which the melting point is 137 to 138 °C.

`CC(C)c1cccc(NC(=O)c2ccccc2C(F)(F)F)c1`: the melting point is 87.5 to 88.5 °C.

Take `CCNC(=O)c1c(Br)ccc(OC)c1[Si](C)(C)C`: the melting point came to 200 °C.

For the compound `Oc1ccc(Cl)cc1C(O)(c1ccccc1)C1CCCCC1` (stereo not drawn), the melting point came to 170 °C.

Consider `CCC(C)(C)c1ccc(OCCCCc2c(O)c(N)c3ccccc3c2C(N)=O)c(C(C)(C)CC)c1`, for which the melting point lay in the range of 93 to 96 °C.

In turn, `CC1(C)CCSc2cc(-c3cc(-c4ccc(C(=O)O)cc4)ccc3-c3ccccc3)ccc21` returned a melting point of 180 °C.

For `O=C(NCC(=O)N1c2ccccc2N(Cc2ccccc2)C(=O)[C@H]2CCC[C@H]21)c1ccc(C(F)(F)F)cc1` (relative stereo), the melting point is 218 to 220 °C.

`O=C(c1ccc2nonc2c1)N1CCC(O)CC1` showed a melting point of 132 to 136 °C.

`O=C1Cc2c(cc3ccccc3c2Cl)C(c2ccccc2Cl)N1` (stereo not drawn) displayed a melting point of 252 to 254 °C.

In turn, `CCOC(=O)C(=Cc1c(Cl)n(Cc2ccc(Cl)cc2)c2ccccc12)C(=O)OCC` gave a melting point of 98 to 99 °C.

In the case of `O=C(NNS(=O)(=O)c1ccccc1)c1ccccc1CCc1ccccc1`, the melting point lay within 158 to 159 °C.

`CCOC(=O)c1sc(-c2ccc(C#N)cc2)nc1COC(C)=O` displayed a melting point of 127 °C.

With `O=c1ccn(-c2cccc(C(F)(F)F)c2)nc1-c1ccnn1Cc1ccccc1`, the melting point was in the range of 156 to 157 °C.

For `CC1CCC(C(C)C)C(OC(=O)C(O)c2ccccc2)C1` (single isomer, unassigned; (-)), the melting point lay in the range of 50 to 51 °C.

With `CCC12CCC(=O)C=C1c1c(cc(O)c(Cl)c1Cl)C2` (stereo not drawn), the melting point lay in the range of 260 to 265 °C.

As to `CC(C)(C)C(=O)NCc1cc(-c2ccc(Cl)c(Cl)c2)n(Cc2ccc(Cl)c(Cl)c2)n1`, the melting point came to 56.5 °C.

Source of the values: a melting point compilation (Tetko et al.; mined from patent text by program, amines drawn as free bases though some values may be those of a salt).
